Consider 24 compounds from US9315475B2 (MERCK SHARP & DOHME CORP., priority 2011, dated 2016).

SMILES strings stand for the structures.

For one test, the target named is T1, wildtype HIV-1 protease (Human immunodeficiency virus type 1 group M subtype B, UniProt P04585).
T1 construct: the wildtype HIV-1 protease (which was expressed in Escherichia coli); made in house; host or cells: Escherichia coli
As to the kind of experiment: Assay for inhibition of microbial expressed HIV protease (Pepcleav). In kind it is biochemical. The conditions noted are these: Pepcleav (nM). The method, boiled down:
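E. coli-expressed wild-type HIV-1 protease (20 pM) preincubated 30 min at room temperature with inhibitor in pH 5.5 sodium acetate/NaCl/BSA buffer, then 400 μM Val-Ser-Gln-Asn-(βnaphthyl)Ala-Pro-Ile-Val added for 1 h at 30 °C. Quenched with formic acid; product quantified by LC-MS/MS peak area, indinavir internal standard.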
For `COC(=O)N[C@H](C(=O)Nc1ccccc1CC[C@@H]1CN[C@H](COC(=O)N[C@H]2CO[C@H]3OCC[C@H]32)CO1)C(c1ccccc1)c1ccccc1` [Example 13, N-(2-{2-[(2R,5S)-5-({[(3R,3aS,6aR)-hexahydrofuro[2,3-b]furan-3-ylcarbamoyl]oxy}methyl)morpholin-2-yl]ethyl}phenyl)-Nα-(methoxycarbonyl)-β-phenyl-L-phenylalaninamide], the IC50 was 110 nM.

Staying with this test, now noted: wild type HIV-1 protease expressed in E. coli, peptide substrate, pH 5.5; mean of at least two independent experiments; read-out: Pepcleav.
Consider `COC(=O)N[C@H](C(=O)Nc1cccc(F)c1CC[C@@H]1CN[C@H](COC(=O)NCC(F)(F)F)CO1)[C@H](c1ccc(F)cc1)c1cccc(OC)c1` [Example 306, (βR)-4-fluoro-N-(3-fluoro-2-{2-[(2R, 5S)-5-({[(2,2,2-trifluoroethyl)carbamoyl]oxy}methyl)morpholin-2-yl]ethyl}phenyl)-Nα-(methoxy-carbonyl)-β-(3-methoxyphenyl)-L-phenylalaninamide], for which the IC50 is 170 nM.
With `COC(=O)N[C@H](C(=O)Nc1ccccc1CC[C@@H]1CN[C@H](C(=O)O)CO1)C(c1ccccc1)c1ccccc1` [Example 1, (3S,6R)-6-[2-(2-{[N-(methoxycarbonyl)-β-phenyl-L-phenylalanyl]amino}phenyl)ethyl]morpholine-3-carboxylic acid], the IC50 was 65 nM.
Consider `COC(=O)N[C@H](C(=O)Nc1ccccc1CC[C@@H]1CN[C@H](CCc2ccccc2NC(=O)NCc2ccccc2)CO1)C(c1ccccc1)c1ccccc1` [Example 75, methyl N-[(1S)-1-benzhydryl-2-[[2-[2-[(2R,5R)-5-[2-[2-(benzylcarbamoylamino)phenyl]ethyl]morpholin-2-yl]ethyl]phenyl]amino]-2-oxo-ethyl]carbamate], for which the IC50 came to 4.1 nM.
As to `COC(=O)N[C@H](C(=O)Nc1ccccc1CC[C@@H]1CN[C@H](CNS(=O)(=O)Cc2ccccc2)CO1)C(c1ccccc1)c1ccccc1` [Example 50, N-(2-{2-[(2R,5R)-5-{[(benzylsulfonyl)amino]methyl}morpholin-2-yl]ethyl}phenyl)-Nα-(methoxycarbonyl)-β-phenyl-L-phenylalaninamide], the IC50 worked out at 49 nM.
Turning to `CNC(=O)OC[C@@H]1CO[C@H](CCc2ccccc2NC(=O)[C@@H](NC(=O)OC)C(c2ccccc2)c2ccccc2)CN1` [Example 30], the IC50 stood at 32 nM.
On to `COC(=O)N[C@H](C(=O)Nc1ccccc1CC[C@@H]1CN[C@H](CNC(=O)c2cccnn2)CO1)C(c1ccccc1)c1ccccc1` [Example 54, methyl N-[(1S)-1-benzhydryl-2-oxo-2-[[2-[2-[(2R,5R)-5-[(pyridazine-3-carbonyl-amino)methyl]morpholin-2-yl]ethyl]phenyl]amino]ethyl] carbamate], for which the IC50 amounted to 26 nM.
As for `C[C@H](NC(=O)OC[C@@H]1CO[C@H](COc2c(F)cccc2NC(=O)[C@@H](N)C(c2ccc(F)cc2)c2ccc(F)cc2)CN1)c1ccc(F)cc1` [Example 210, 4-fluoro-N-[3-fluoro-2-({(2S,5S)-5-[({[(1S)-1-(4-fluorophenyl)ethyl]carbamoyl}oxy)methyl]morpholin-2-yl}methoxy)phenyl]-β-(4-fluorophenyl)-L-phenylalaninamide], the IC50 was found to be 13 nM.
As to `N[C@@H](Cc1ccccc1Cl)C(=O)Nc1cccc(F)c1CC[C@@H]1CN[C@H](COC(=O)NCc2ccc(F)cc2)CO1` [Example 204, 2-chloro-N-(3-fluoro-2-{2-[(2R,5S)-5-({[(4-fluorobenzyl)carbamoyl]oxy}methyl)morpholin-2-yl]ethyl}phenyl)-L-phenylalaninamide], the IC50 stood at 26 nM.
The same measure, in the same setting: then `COC(=O)N[C@H](C(=O)Nc1ccccc1CC[C@@H]1CN[C@H](C(=O)NCCc2ccccc2)CO1)C(c1ccccc1)c1ccccc1` [Example 6, Nα-(methoxycarbonyl)-β-phenyl-N-[2-(2-{(2R,5S)-5-[(2-phenylethyl)carbamoyl]morpholin-2-yl}ethyl)phenyl]-L-phenylalaninamide], with 9.9 nM.
Turning to `CCNC(=O)Nc1ccccc1CC[C@@H]1CO[C@H](CCc2ccccc2NC(=O)[C@@H](NC(=O)OC)C(c2ccccc2)c2ccccc2)CN1` [Example 77], the IC50 stood at 15 nM.
Consider `CC(C)(CO)NC(=O)OC[C@@H]1CO[C@H](CCc2c(F)cncc2NC(=O)[C@@H](N)C(c2ccc(F)cc2)c2ccc(F)cc2)CN1` [Example 218, 4-fluoro-N-(5-fluoro-4-{2-[(2R,5S)-5-({[(2-hydroxy-1,1-dimethylethyl)carbamoyl]oxy}methyl)morpholin-2-yl]ethyl}pyridin-3-yl)-β-(4-fluorophenyl)-L-phenylalaninamide], for which the IC50 turned out to be 2.1 nM.
Turning to `COC(=O)N[C@H](C(=O)Nc1ccccc1CC[C@@H]1CN[C@H](C(N)=O)CO1)C(c1ccccc1)c1ccccc1` [Example 11, methyl [(1S)-2-[(2-{2-[(2R,5S)-5-(aminocarbonyl)morpholin-2-yl]ethyl}phenyl)amino]-1-(diphenylmethyl)-2-oxoethyl]carbamate], the IC50 turned out to be 80 nM.
The same measure, in the same setting: in the case of `COC(=O)N[C@H](C(=O)Nc1ccccc1CC[C@@H]1CN[C@H](COC(=O)NC2CCC2)CO1)C(c1ccccc1)c1ccccc1` [Example 23, methyl N-[(1S)-1-benzhydryl-2-[[2-[2-[(2R,5S)-5-(cyclobutylcarbamoyloxymethyl)morpholin-2-yl]ethyl]phenyl]amino]-2-oxo-ethyl]carbamate] it was 80 nM.
For `COC(=O)N[C@H](C(=O)Nc1ccccc1CC[C@@H]1CN[C@H](COC(=O)N[C@H]2COC[C@@H]2F)CO1)C(c1ccccc1)c1ccccc1` [Example 29, N-[2-(2-{(2R,5S)-5-[({[(3S,4R)-4-fluorotetrahydrofuran-3-yl]carbamoyl}oxy)methyl]morpholin-2-yl}ethyl)phenyl]-Nα-(methoxycarbonyl)-β-phenyl-L-phenylalaninamide], the IC50 came out at 18 nM.
Turning to `COCC(=O)Nc1ccccc1CC[C@@H]1CO[C@H](CCc2ccccc2NC(=O)[C@@H](NC(=O)OC)C(c2ccccc2)c2ccccc2)CN1` [Example 70, methyl N-[(1S)-1-benzhydryl-2-[[2-[2-[(2R,5R)-5-[2-[2-[(2-methoxyacetyl)amino]phenyl]ethyl]morpholin-2-yl]ethyl]phenyl]amino]-2-oxo-ethyl]carbamate], the IC50 was 24 nM.
`CN1CCC(NC(=O)OC[C@@H]2CO[C@H](CCc3c(F)cncc3NC(=O)[C@@H](N)C(c3ccc(F)cc3)c3ccc(F)cc3)CN2)C1` (stereo partly drawn) [Example 229, 4-fluoro-N-(5-fluoro-4-{2-[(2R,5S)-5-({[(1-methylpyrrolidin-3-yl)carbamoyl]oxy}methyl)morpholin-2-yl]ethyl}pyridin-3-yl)-β-(4-fluorophenyl)-L-phenylalaninamide]: the IC50 amounted to 190 nM.
On the same count and under the same terms, then `COC(=O)N[C@H](C(=O)Nc1ccccc1CC[C@@H]1CN[C@H](Cn2cc([Si](C)(C)C)nn2)CO1)C(c1ccccc1)c1ccccc1` [Example 65, Nα-(methoxycarbonyl)-β-phenyl-N-(2-{2-[(2R,5R)-5-{[4-(trimethylsilyl)-1H-1,2,3-triazol-1-yl]methyl}morpholin-2-yl]ethyl}phenyl)-L-phenylalaninamide], with 43 nM.
Same read-out and setting: in the case of `COC(=O)N[C@H](C(=O)Nc1c(CC[C@@H]2CN[C@H](COC(=O)NCc3ccc(F)cc3)CO2)cc[nH]c1=O)C(c1ccccc1)c1ccccc1` [Example 38, N-(4-{2-[(2R,5S)-5-({[(4-fluorobenzyl)carbamoyl]oxy}methyl)morpholin-2-yl]ethyl}-2-oxo-1,2-dihydropyridin-3-yl)-Nα-(methoxycarbonyl)-β-phenyl-L-phenylalaninamide] it was 0.6 nM.
As to `COC(=O)N[C@H](C(=O)Nc1c(CC[C@@H]2CN[C@H](COC(=O)NCC(F)(F)F)CO2)ccnc1OC)C(c1ccccc1)c1ccccc1` [Example 35, Nα-(methoxycarbonyl)-N-(2-methoxy-4-{2-[(2R,5S)-5-({[(2,2,2-trifluoroethyl)carbamoyl]oxy}methyl)morpholin-2-yl]ethyl}pyridin-3-yl)-β-phenyl-L-phenylalaninamide], the IC50 came to 60 nM.
As to `COC(=O)N[C@H](C(=O)Nc1ccccc1CC[C@@H]1CN[C@H](CCCc2ccccc2)CO1)C(c1ccccc1)c1ccccc1` [Example 67, methyl{(1S)-1-(diphenylmethyl)-2-oxo-2-[(2-{2-[(2R,5R)-5-(3-phenylpropyl)morpholin-2-yl]ethyl}phenyl)amino]ethyl}carbamate], the IC50 is 26 nM.
On the same count and under the same terms, then `Cc1cccc(NC(=O)[C@@H](N)C(c2ccc(F)cc2)c2ccc(F)cc2)c1CC[C@@H]1CN[C@H](COC(=O)NCC(F)(F)F)CO1` [Example 226, 4-fluoro-β-(4-fluorophenyl)-N-(3-methyl-2-{2-[(2R,5S)-5-({[(2,2,2-trifluoro-ethyl)carbamoyl]oxy}methyl)morpholin-2-yl]ethyl}phenyl)-L-phenylalaninamide], with 360 nM.
For `COC(=O)N[C@H](C(=O)Nc1ccccc1CC[C@@H]1CN[C@H](CNC(=O)c2cc(-c3ccccn3)[nH]n2)CO1)C(c1ccccc1)c1ccccc1` [Example 60, methyl N-[(1S)-1-benzhydryl-2-oxo-2-[[2-[2-[(2R,5R)-5-[[[5-(2-pyridyl)-1H-pyrazole-3-carbonyl]amino]methyl]morpholin-2-yl]ethyl]phenyl]amino]ethyl] carbamate], the IC50 was 72 nM.
Take `COC(=O)N[C@H](C(=O)Nc1ccccc1CC[C@@H]1CN[C@H](CNS(=O)(=O)c2ccc3cnnn3c2)CO1)C(c1ccccc1)c1ccccc1` [Example 45, methyl N-[(1S)-1-benzhydryl-2-oxo-2-[[2-[2-[(2R,5R)-5-[(triazolo[1,5-a]pyridin-6-ylsulfonylamino)methyl]morpholin-2-yl]ethyl]phenyl]amino]ethyl]carbamate]: the IC50 stood at 21 nM.
